Source: patent publication US20220395472A1 (Dermavant Sciences GmbH, priority 2021, published 2022)

Tested on: plaque psoriasis
Test: 12-week phase 2b trial in psoriasis
Assay type: in vivo, human
Details: cream 1%; 12-week treatment
Description: As mentioned, tapinarof is a novel therapeutic aryl hydrocarbon receptor modulating agent (TAMA) in clinical development for the topical treatment of psoriasis and atopic dermatitis. […] AhR modulates T cell responses both through intrinsic control of T cell subset differentiation and via controlling the function of antigen presenting cells. In addition, AhR signaling promotes the conversion of Th17 cells to type 1 regulatory T cells. Aberrant immune responses underpin the pathogenesis of both PsO and AD, and the wide expression of AhR in immune cells makes it an attractive target given the essential role of AhR in regulating inflammatory responses and skin homeostasis. […] These clinical data support the role of AhR in skin immune homeostasis. Given the multitude of AhR-dependent immunoregulatory mechanisms, AhR is an attractive target for novel immunotherapies with the potential to extend therapeutic efficacy following treatment discontinuation; this may provide a unique clinical benefit to patients.
Treatment-emergent adverse events (TEAEs) were reported with a higher frequency in the tapinarof groups than in the vehicle groups. […]

CC(C)c1c(O)cc(/C=C/c2ccccc2)cc1O [Tapinarof, 3,5-Dihydroxy-4-isopropyl-trans-stilbene]
time efficacy was maintained after treatment cessation: 4 weeks
